Measurements: patent US20240108634A1, “COMPOSITIONS AND METHODS FOR INHIBITING YAP” (The United States Government as represented by the …, priority 2021, published 2024)

Tests used:
[1] = Brain and plasma concentrations by HPLC after IV administration; type: in vivo, C57/BL6 mice; conditions: single IV administration
Experimental: (§1) FIGS. 9A-B show GEMM survival and brain/blood plasma concentrations following treatment with NSC682769. […] C57/BL6 mice were administered NSC682769 IV and mean brain and plasma concentrations were determined via HPLC analyses. (n=5).
Protein and mRNA analyses, immunoprecipitation, in vitro bead-coupled inhibitor binding assays and HPLC analyses. Western blot analyses were performed as previously described (Artinian N, et al. (2015) J Biol Chem 290: 19387-19401). Briefly, cells were lysed in RIPA (lysis) buffer containing protease inhibitor cocktail and phosSTOP™ phosphatase inhibitor cocktail (Roche) and extracts resolved by SDS-PAGE. Proteins were transferred to PVDF membranes and incubated with the indicated antibodies. Antigen-antibody complexes were detected using appropriate horseradish peroxidase-conjugated secondary antibodies (GE Healthcare) and enhanced chemiluminescence (Amersham ECL Prime). […] For quantitative RT-PCR, extraction of RNA was performed using Trizol® (Life Technologies). Total RNA was then quantified and integrity assessed using an Agilent 2100 Bioanalyzer (Agilent Technology). […] SYBR® Green quantitative PCR (Millipore Sigma) was performed in triplicate in 96-well optical plates on an ABI Prism 7000 Sequence Detection System (Life Technologies) according to the manufacturer's instructions. […]

[2] = system: GFAP-EGFRvIII×GFAP-Cre+/Rictor glioma GEMM; assay: Survival of GFAP-EGFRvIII; GFAP-Cre/Rictor transgenic glioma mice; type: in vivo
Experimental: as §1
Animal studies. Xenografts of LN229 cells were performed in 4-6-week-old female C.B.-17-scid (Taconic) mice as previously described (Holmes B, et al. (2016) J Biol Chem 291: 14146-14159). Tumors were harvested at autopsy for immunoblot analysis. Sections of paraffin-embedded tumors on slides were processed for immunohistochemistry as previously described (Benavides-Serrato A, et al. (2017) PLoS One 12: e0176599). For GEMM studies, double transgenic GFAP-EGFRvIII; GFAP-Cre/Rictor^loxP/loxP mice as previously described were used (Bashir T, et al. (2012) PLoS One 7: e47741). Determinations of blood plasma and brain concentrations of NSC682769 following IV administration were performed in C57/BL6 mice.
NSC682769 increases survival of a glioma GEMM and penetrates the blood-brain barrier. NSC682769 was evaluated in double transgenic GFAP-EGFRvIII; GFAP-Cre/Rictor^loxP/loxP mice which overexpress both the mutant constitutively active EGFRvIII allele and the mTORC2 scaffolding component Rictor. […] To assess therapeutic activity, the effect of twice-weekly 5 or 20 mg/kg NSC682769 treatments was measured on survival.

## COc1ccc(-c2cc(-c3ccccc3)nc3c2CC(=O)Nc2ccccc2-3)cc1OC [NSC682769]
[1]
  Cb/Cp ratios (brain/plasma): consistent with BBB penetrance
[1]; at 5 min post-administration
  Peak value in brain tissue: 6.22 µg/g
[2]; 5 mg/kg twice weekly
  Mice surviving to 20 weeks: 60%
[2]; 20 mg/kg twice weekly
  Mice surviving at 20 weeks: more than 75%
